Among the data in patent publication US4921850A, “3-propenylcephem derivative” (Eisai Co., Ltd., priority 1986, dated 1990) are MIC and LD50 values, retold here.

One may read the MIC as the lowest concentration found to suppress growth.

≈ marks a conversion by molar mass, not a printed value.

One data set concerns Staph. aureus E 31106. The data set can be described thus: Comparison test of anti-bacterial activity (MIC). The data set is classed as cell-based. The following applies: Staphylococcus aureus, E31106, 18 h, comparison R1 = CH2F vs CH3. How it is done:
(§1) MIC (μg/ml) were determined by an agar dilution method [Chemotherapy (Japan), 29, 76-79, 1981]. Overnight cultures of the bacterial strains in Mueller-Hinton broth were diluted to final concentration of about 10^6 CFU/ml, and 5 μl of each bacterial suspension was spotted onto Mueller-Hinton agar plates that contained twofold serial dilutions of antibiotics. MICs were measured after incubation for 18 hours at 37° C.
(§2) Comparison tests of the anti-bacterial activities were conducted between the compounds of the following formula according to the present invention and the corresponding control compounds wherein R1 represents methyl group. Measurements of MIC are the same as described in the above item 2.

A further data set has as its system Proteus vulgaris E 08042. The data set can be described thus: Comparison test of anti-bacterial activity (MIC). The data set is classed as cell-based. The settings on record: E08042, 18 h, comparison R1 = CH2F vs CH3. The protocol:
as §1, §2

Data set [1] has as its system Enterobacter cloacae E-74. The data set is described as follows: Comparison test of anti-bacterial activity (MIC). It counts as cell-based. The settings on record: E74, 18 h, comparison R1 = CH2F vs CH3. The protocol: as §1, §2
The subject of data set [2] is Xantomonas maltophilia E 04004. The data set can be described thus: Comparison test of anti-bacterial activity (MIC). It counts as cell-based. The settings on record: 18 h, comparison R1 = CH2F vs CH3. The protocol:
as §1, §2

For another data set, the system named is Staph. aureus 209-P. The data set can be described thus: Anti-bacterial activity (MIC), agar dilution. It counts as cell-based. The settings on record: Staphylococcus aureus, 209P, 18 h, Staph. aureus 209-P; agar dilution, about 10^6 CFU/ml, 18 hours, 37° C.; read-out: MIC. In a few lines:
(§3)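 Overnight Mueller-Hinton broth cultures were diluted to about 10^6 CFU/ml and spotted onto Mueller-Hinton agar plates carrying twofold serial dilutions of antibiotic. After 18 hours at 37° C, MIC (μg/ml) was determined by agar dilution.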

The test system of the next data set is Ser. marcescens ES-75. The data set is described as follows: Anti-bacterial activity (MIC), agar dilution. It counts as cell-based. The settings on record: Serratia marcescens, ES75, 18 h, Ser. marcescens ES-75; agar dilution, about 10^6 CFU/ml, 18 hours, 37° C.; read-out: MIC. In a few lines: as §3
(In agar dilution the substance is mixed into plates at graded concentrations.)

For a further data set, the system named is Kleb. pneumoniae EK-6. The data set is described as follows: Anti-bacterial activity (MIC), agar dilution. The data set is classed as cell-based. The following applies: Klebsiella pneumoniae, EK6, 18 h, Kleb. pneumoniae EK-6; agar dilution, about 10^6 CFU/ml, 18 hours, 37° C.; read-out: MIC. Put shortly: as §3
In a further data set the test system is Pseud. aeruginosa EP-01. The data set is described as follows: Anti-bacterial activity (MIC), agar dilution. The settings on record: Pseudomonas aeruginosa, EP01, 18 h, Pseud. aeruginosa EP-01; agar dilution, about 10^6 CFU/ml, 18 hours, 37° C.; read-out: MIC. It counts as cell-based. In a few lines:
as §3

A further data set concerns Escher. coli NIHJ. The data set is described as follows: Anti-bacterial activity (MIC), agar dilution. The data set is classed as cell-based. The settings on record: Escherichia coli, 18 h, Escher. coli NIHJ; agar dilution, about 10^6 CFU/ml, 18 hours, 37° C.; read-out: MIC. Put shortly:
as §3

The subject of data set [3] is Morganella morganii EP-14. The data set can be described thus: Anti-bacterial activity (MIC), agar dilution. The data set is classed as cell-based. The settings on record: Morganella morganii, EP14, 18 h, about 10^6 CFU/ml, 37° C., read-out: MIC. In a few lines: as §3
Another data set in a line: in vivo. The settings on record: intravenous, physiological saline solution, five ICR male 6 weeks-old mouse, read-out: values of acute toxicity. The text has this: (1) Acute toxicity in mouse:
The compounds according to this invention dissolved in a physiological saline solution were intravenously dosed to five ICR male 6 weeks-old mouse.

With `CO/N=C(\C(=O)N[C@@H]1C(=O)N2C(C(=O)[O-])=C(/C=C/C[n+]3ccc(C(=O)O)cc3)CS[C@H]12)c1nsc(N)n1` [CH3 (Control) to Example 125, reference compound], the MIC in the data set with Staph. aureus E 31106 turned out to be 12.5 µg/mL (≈ 22.9 µM); against Proteus vulgaris E 08042 it was 12.5 µg/mL (≈ 22.9 µM); in [1], 3.13 µg/mL (≈ 5.74 µM); in data set [2] it was 50 µg/mL (≈ 91.6 µM).

Regarding `CO/N=C(\C(=O)N[C@@H]1C(=O)N2C(C(=O)[O-])=C(/C=C/C[N+]3(C)CCCC3)CS[C@H]12)c1nsc(N)n1` [CH3 (Control) to Example 126, reference compound], the minimal inhibitory concentration (MIC) worked out at 1.56 µg/mL (≈ 3.07 µM) in the data set on Proteus vulgaris E 08042, 0.1 µg/mL (≈ 0.197 µM) in data set [1] and 100 µg/mL (≈ 197 µM) in data set [2].

`CO/N=C(\C(=O)N[C@@H]1C(=O)N2C(C(=O)[O-])=C(/C=C/C[n+]3ccc(C(N)=O)cc3)CS[C@H]12)c1nsc(N)n1` [CH3 (Control) to Example 127, reference compound]: the MIC against Staph. aureus E 31106 amounted to 6.25 µg/mL (≈ 11.5 µM); in the data set with Proteus vulgaris E 08042 it was 3.13 µg/mL (≈ 5.75 µM); in data set [1], 0.4 µg/mL (≈ 0.735 µM); in data set [2], 50 µg/mL (≈ 91.8 µM).

`CO/N=C(\C(=O)N[C@@H]1C(=O)N2C(C(=O)[O-])=C(/C=C/C[N+](C)(C)C)CS[C@H]12)c1nsc(N)n1` [CH3 (Control) to Example 128, reference compound]: the minimum inhibitory concentration (MIC) in the data set with Staph. aureus E 31106 was 6.25 µg/mL (≈ 13 µM); in the data set with Proteus vulgaris E 08042, 6.25 µg/mL (≈ 13 µM); in data set [1] it was 0.2 µg/mL (≈ 0.415 µM); in data set [2], over 100 µg/mL.

For `Nc1nc(/C(=N/OCF)C(=O)N[C@@H]2C(=O)N3C(C(=O)[O-])=C(/C=C/C[n+]4ccc(C(=O)O)cc4)CS[C@H]23)ns1` [Example 125, 7β-[2-(5-Amino-1,2,4-thiadiazol-3-yl)-(Z)-2-fluoromethoxyiminoacetamido]-3-[(E)-3-(4-carboxypyridinio)-1-propen-1-yl]-3-cephem-4-carboxylate], the minimal inhibitory concentration (MIC) is 6.25 µg/mL (≈ 11.1 µM) against Staph. aureus E 31106; 0.2 µg/mL (≈ 0.355 µM) with Proteus vulgaris E 08042; 0.4 µg/mL (≈ 0.71 µM) in data set [1]; 25 µg/mL (≈ 44.4 µM) in data set [2]; 0.4 µg/mL (≈ 0.71 µM) with Staph. aureus 209-P; at most 0.025 µg/mL in the data set with Ser. marcescens ES-75. The minimum inhibitory concentration (MIC) was at most 0.025 µg/mL in the data set on Kleb. pneumoniae EK-6, 1.56 µg/mL (≈ 2.77 µM) in the data set on Pseud. aeruginosa EP-01, at most 0.025 µg/mL in the data set on Escher. coli NIHJ and at most 0.025 µg/mL in data set [3].

As for `C[N+]1(C/C=C/C2=C(C(=O)[O-])N3C(=O)[C@@H](NC(=O)/C(=N\OCF)c4nsc(N)n4)[C@H]3SC2)CCCC1` [Example 126, 7β-[2-(5-Amino-1,2,4-thiadiazol-3-yl)-(Z)-2-fluoromethoxyiminoacetamido]-3-[(E)-3-(1-methylpyrrolidinio)-1-propen-1-yl]-3-cephem-4-carboxylate], the minimum inhibitory concentration (MIC) against Staph. aureus E 31106 is 1.56 µg/mL (≈ 2.97 µM); against Proteus vulgaris E 08042, 0.05 µg/mL (≈ 0.0951 µM); in [1] it was 0.05 µg/mL (≈ 0.0951 µM); in [2], 12.5 µg/mL (≈ 23.8 µM); with Staph. aureus 209-P, 0.1 µg/mL (≈ 0.19 µM); with Ser. marcescens ES-75, 0.05 µg/mL (≈ 0.0951 µM). Moreover, the MIC in the data set on Kleb. pneumoniae EK-6 is at most 0.025 µg/mL; with Pseud. aeruginosa EP-01, 0.8 µg/mL (≈ 1.52 µM); in the data set on Escher. coli NIHJ, at most 0.025 µg/mL; in [3], at most 0.025 µg/mL.

As to `NC(=O)c1cc[n+](C/C=C/C2=C(C(=O)[O-])N3C(=O)[C@@H](NC(=O)/C(=N\OCF)c4nsc(N)n4)[C@H]3SC2)cc1` [Example 127, 7β-[2-(5-Amino-1,2,4-thiadiazol-3-yl)-(Z)-2-fluoromethoxyiminoacetamido]-3-[(E)-3-(4-carbamoylpyridinio)-1-propen-1-yl]-3-cephem-4-carboxylate], the MIC in the data set on Staph. aureus E 31106 was 3.13 µg/mL (≈ 5.56 µM); in the data set on Proteus vulgaris E 08042, at most 0.025 µg/mL; in data set [1], at most 0.025 µg/mL; in data set [2], 6.25 µg/mL (≈ 11.1 µM); with Staph. aureus 209-P it was 0.1 µg/mL (≈ 0.178 µM); with Ser. marcescens ES-75, 0.05 µg/mL (≈ 0.0889 µM). The MIC was at most 0.025 µg/mL with Kleb. pneumoniae EK-6, 0.8 µg/mL (≈ 1.42 µM) in the data set on Pseud. aeruginosa EP-01, at most 0.025 µg/mL in the data set on Escher. coli NIHJ and at most 0.025 µg/mL in [3].

As for `C[N+](C)(C)C/C=C/C1=C(C(=O)[O-])N2C(=O)[C@@H](NC(=O)/C(=N\OCF)c3nsc(N)n3)[C@H]2SC1` [Example 128, 7β-[2-(5-Amino-1,2,4-thiadiazol-3-yl)-(Z)-2-fluoromethoxyiminoacetamido]-3-[(E)-3-(trimethylammonio)-1-propen-1-yl]-3-cephem-4-carboxylate], the MIC in the data set with Staph. aureus E 31106 was found to be 3.13 µg/mL (≈ 6.27 µM); against Proteus vulgaris E 08042, 0.1 µg/mL (≈ 0.2 µM); in data set [1] it was 0.1 µg/mL (≈ 0.2 µM); in data set [2] it was 25 µg/mL (≈ 50 µM); in the data set with Staph. aureus 209-P, 0.2 µg/mL (≈ 0.4 µM); in the data set with Ser. marcescens ES-75, 0.1 µg/mL (≈ 0.2 µM). Further, the minimum inhibitory concentration (MIC) in the data set with Kleb. pneumoniae EK-6 stood at 0.05 µg/mL (≈ 0.1 µM); with Pseud. aeruginosa EP-01, 0.8 µg/mL (≈ 1.6 µM); with Escher. coli NIHJ, 0.05 µg/mL (≈ 0.1 µM); in data set [3], 0.05 µg/mL (≈ 0.1 µM).

`CC(=O)C[N+](C)(C)C/C=C/C1=C(C(=O)[O-])N2C(=O)[C@@H](NC(=O)/C(=N\OCC#N)c3nsc(N)n3)[C@H]2SC1` [Example 154]: the minimal inhibitory concentration (MIC) with Staph. aureus 209-P was determined as 0.4 µg/mL (≈ 0.729 µM); in the data set with Ser. marcescens ES-75 it was 0.1 µg/mL (≈ 0.182 µM); with Kleb. pneumoniae EK-6 it was 0.1 µg/mL (≈ 0.182 µM); in the data set on Pseud. aeruginosa EP-01 it was 0.8 µg/mL (≈ 1.46 µM); in the data set with Escher. coli NIHJ, 0.1 µg/mL (≈ 0.182 µM); in [3], 0.1 µg/mL (≈ 0.182 µM). Besides, the LD50 in “in vivo” was over 2000 mg/kg.

Regarding `C[N+](C)(C/C=C/C1=C(C(=O)[O-])N2C(=O)[C@@H](NC(=O)/C(=N\OCC#N)c3nsc(N)n3)[C@H]2SC1)CC(N)=O` [Example 155], the MIC in the data set on Staph. aureus 209-P worked out at 0.4 µg/mL (≈ 0.728 µM); in the data set with Ser. marcescens ES-75 it was 0.2 µg/mL (≈ 0.364 µM); in the data set on Kleb. pneumoniae EK-6, 0.05 µg/mL (≈ 0.091 µM); with Pseud. aeruginosa EP-01, 1.56 µg/mL (≈ 2.84 µM); in the data set with Escher. coli NIHJ, 0.1 µg/mL (≈ 0.182 µM); in [3], 0.1 µg/mL (≈ 0.182 µM). In addition, the LD50 in “in vivo” is over 2000 mg/kg.
